AC50 data for 92 compounds are collected here from PubChem BioAssay AID463074 (Broad Institute, 2010).

In general, AC50 refers to the concentration giving half of the maximal activity seen.

The source made the active and inactive calls.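 Rule for the calls: active = AC50 no more than tenfold above the top dose tested, or full inhibition at every dose with a flat fit (cut at about 19 µM in these data); inconclusive = flat curve fit with inhibition between 30% and 70%, or poor fit; inactive = AC50 more than tenfold above the top dose tested.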

The assay has as its system HMLE_sh_eGFP viability, CellTiter-Glo luminescence, 72 h. The assay can be described thus: cytotoxicity in HMLE control line with eGFP shRNA, dose response, counter-screen for HMLE_sh_ECad selective toxicity project, cell-based, HMLE_sh_eGFP, luminescence (AID 463074).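 Note: potency for loss of viability as luminescence drops below DMSO wells.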 Background: The purpose of a counterscreen is to sort out artefacts and off-target activity.
For `O=C1C2C3C=CC(C4CC34)C2C(=O)N1/N=C/c1ccc(-c2ccc(F)cc2[N+](=O)[O-])o1` (configuration not stated), the AC50 was 1.21 µM.
Next, `Clc1ccc(CO/N=C/c2c(-c3ccccc3)nc3n2CCS3)c(Cl)c1`: 4.62 µM.
Consider `CC1(C)CN(c2ccccc2)N(C(=O)c2ccc(C#N)cc2)C1=O`, for which the half-maximal activity concentration (AC50) was 4.31 µM.
Consider `CC(Cc1ccccc1)NCCC(c1ccccc1)c1ccccc1` (configuration not stated), for which the AC50 is 8.73 µM.
The same measure for `COc1cccc(-c2cc3nc4c(c(N5CCC6(CC5)OCCO6)n3n2)CCCC4)c1`: 9.81 µM.
The same measure for `Cc1ccc(CNc2nc(-c3cccs3)nc3ccccc23)cc1`: 8.41 µM.
`O=C(/C(N=Nc1cccc(C(F)(F)F)c1)=C(/O)c1cccs1)C(F)(F)F`: the half-maximal activity concentration (AC50) is 2.17 µM.
Next, `CCOC(=O)c1c(CSc2ccccc2)n(C)c2cc(Br)c(OCC(O)CNC(CO)(CO)CO)cc12` (configuration not stated): 1.84 µM.
With `Cc1c(O)cc2c(c1O)C(=O)CC(c1ccccc1)O2` (configuration not stated), the AC50 is 15.2 µM.
Next, `C=C1/C(=C\C=C2/CCC[C@]3(C)[C@@H]([C@H](C)/C=C/[C@@H](O)C4CC4)CC[C@@H]23)C[C@@H](O)C[C@@H]1O`: 6.49 µM; `CC1(NC(=O)CC(c2ccccc2)(c2ccccc2)c2ccccc2)CCN(CCCc2ccccc2)C1=O` (configuration not stated): 6.85 µM; `O=C(Nc1ccc([N+](=O)[O-])cc1)Nc1ccc(OC(F)F)c(Cl)c1`: 2.09 µM.
The same measure for `Cc1cc(C)cc(NC(=O)CSc2ccc(-c3ccccn3)nn2)c1`: 3.61 µM.
The same measure for `CCOC(=O)c1c(NC(=O)/C=C/c2ccc3c(c2)OCO3)sc(C)c1CC`: 1.35 µM.
With `C=CCn1c(Sc2ncc([N+](=O)[O-])s2)n[nH]c1=O`, the AC50 was 3.59 µM.
The same measure for `COc1ccc(C(CCNCc2ccc(OC(C)C)cc2)c2ccccc2OC)cc1` (configuration not stated): 4.66 µM; for `O=C(NCc1cccnc1)/C(=C/c1ccc(-c2cccc(Cl)c2)o1)S(=O)(=O)c1ccccc1`: 2.66 µM; for `NC(=O)CC(NC(=O)Cc1ccc(Br)cc1)c1ccc(N2CCC(Cc3ccccc3)CC2)c([N+](=O)[O-])c1` (configuration not stated): 14.7 µM.
Next, `O=S(=O)(Nc1nc2ccccc2nc1Nc1ccc(N2CCOCC2)cc1)c1cc(Cl)ccc1Cl`: 4.23 µM; `CC(C)=CCc1c(O)c(CC=C(C)C)c2occ(-c3ccc(O)cc3)c(=O)c2c1O`: 3.49 µM; `CN(C)CCNC(=O)/C(=C/c1ccc(-c2ccc(Cl)cc2Cl)o1)NC(=O)c1ccccc1`: 4.78 µM.
For the compound `CCCSc1nsc(NC(=O)C(c2ccccc2)c2ccccc2)n1`, the concentration at half-maximal activity (AC50) was 3.64 µM.
In the case of `CCC1CSC(Nc2ccc(C(=O)/C=C/c3cccc(C)c3)cc2)=N1` (configuration not stated), the AC50 is 5.56 µM.
Regarding `CC(C)(C)C1CCC(CN2C(Nc3ccccc3)=NC[C@@H]2Cc2ccccc2)CC1` (some centres not stated), the half-maximal activity concentration (AC50) is 6.54 µM.
`CCC(C)c1ccccc1NC(=O)COC(=O)c1ccc2[nH]c3c(c2c1)CCCC3` (configuration not stated): the concentration at half-maximal activity (AC50) was 3.4 µM.
Next, `CCOC(=O)c1c(CSc2ccc(C)cc2)oc2ccc(O)cc12`: 5.05 µM; `CC(C)C1C(c2ccccc2)N(C)C(c2ccccc2)CC1(O)c1ccccc1` (configuration not stated): 3.35 µM.
The same measure for `COC(=O)c1ccc(COc2ccccc2/C=C(\C#N)C(=O)Nc2c(C)cccc2C)cc1`: 2.86 µM; for `CC(C)OC(=O)C(=O)NNc1ccccc1`: 1.22 µM; for `O=C(N/N=C/c1cc(Cl)cc([N+](=O)[O-])c1O)NC12CC3CC(CC(C3)C1)C2`: 4.59 µM.
Next, `Cc1ccc(Nc2cc(C)nc(NCc3ccccc3)n2)cc1`: 4.86 µM.
For `CCCNCC1C(Oc2ccc(Cl)cc2Cl)C(=O)N1c1cccc(C)c1C` (configuration not stated), the half-maximal activity concentration (AC50) is 7.2 µM.
The same measure for `O=C(NCc1ccc(F)cc1)C(=O)Nc1nc(C23CC4CC(CC(C4)C2)C3)cs1`: 2.13 µM.
The same measure for `Oc1c(Cl)cc(Cl)cc1CNc1ccc(Br)cn1`: 3.68 µM.
The same measure for `CC(/C=N/n1c(C2CCCCC2)n[nH]c1=S)=C\c1ccccc1`: 4.88 µM; for `CCOc1cc(S(=O)(=O)Nc2ccc(CC)cc2)ccc1Cl`: 7.02 µM; for `O=C(N/N=C/c1cc(Cl)ccc1O)C(=O)Nc1ccccc1OC(F)(F)C(F)F`: 3.9 µM.
In the case of `CCOC(=O)C1=C(c2ccccc2)N=c2s/c(=C\c3cccc(O)c3)c(=O)n2C1c1cccs1` (configuration not stated), the half-maximal activity concentration (AC50) is 3.39 µM.
Next, `O=C1[C@@H]2Cc3c([nH]c4ccccc34)C(c3cccc(Br)c3)N2C(=O)CN1C1CCN(Cc2ccccc2)CC1` (some centres not stated): 7.12 µM.
The same measure for `CCOC(=O)c1c(C)nc2c(c1-c1ccc(Cl)cc1)C(=O)CC(C)(C)C2`: 18.1 µM; for `C=C(C)[C@@H]1CC[C@]2(C(=O)O)CC[C@]3(C)[C@H](CC[C@@H]4[C@@]5(C)CC[C@H](O)C(C)(C)[C@@H]5CC[C@]43C)[C@@H]12`: 3.97 µM.
On to `O=c1cc(-c2ccccc2)[nH]n1-c1ccc([N+](=O)[O-])cc1`, for which the AC50 was 8.23 µM.
The same measure for `CCCCCCCC/C=C\CCCCCCCC(=O)NCCc1ccc(O)c(O)c1`: 4.61 µM; for `Cc1cc2nc(NCCCO)n(CC(=O)c3cc(C(C)(C)C)c(O)c(C(C)(C)C)c3)c2cc1C`: 3.56 µM; for `CCOC(=O)C(=O)NNc1ccc(F)cc1`: 1.45 µM.
Take `O=S(=O)(Nc1ccc(-c2nnc(SCc3ccc(Cl)cc3)o2)cc1)c1ccccc1`: the AC50 was 3.6 µM.
For the compound `O=c1c2ccccc2nc(/C=C/c2ccccc2F)n1-c1ccccc1O`, the concentration at half-maximal activity (AC50) is 6.44 µM.
In the case of `CCCCc1ccc(N=N/C(C(=O)Nc2ccc(NC(C)=O)cc2OC)=C(/C)O)cc1`, the AC50 is 17.7 µM.
For the compound `COc1cc(/C=C/c2noc(-c3ccccc3O)n2)ccc1OC(C)=O`, the AC50 is > 19.5 µM (inactive).
Next, `S=c1[nH]nc(C2CCCCC2)n1/N=C/C(Cl)=C\c1ccccc1`: 8.35 µM; `CCOC(=O)c1cc(-c2cccs2)nc2c1c(C)nn2-c1ccccn1`: 11.8 µM; `CCc1ccc(-c2cc(C(=O)N/N=C/c3c[nH]c4ccccc34)[nH]n2)cc1`: 12.6 µM.
As to `O=C(c1cnn2c1NC(c1ccc(Br)cc1)CC2C(F)(F)F)N1CCN2CCCC2C1` (configuration not stated), the AC50 is 4.46 µM.
Next, `Clc1ccc(/C=C/c2nc3ccccc3[nH]2)cc1`: 3.5 µM.
Consider `CCN(CC)S(=O)(=O)c1cccc(C(=O)N/N=C/c2cccc(O)c2O)c1`, for which the concentration at half-maximal activity (AC50) was 7.97 µM.
The same measure for `Cc1oc2c(c1C(=O)N1CCC(C)CC1)C(=O)c1ccccc1C2=O`: 7.99 µM; for `O=C(Nc1ccc(F)cc1)c1nc(S(=O)(=O)Cc2ccccc2)ncc1Cl`: 7.15 µM; for `COc1cc(/C=N/NC(=O)c2ccc(CN(C)S(=O)(=O)c3ccc(C)cc3)cc2)ccc1O`: 5.13 µM.
The same measure for `COc1ccc(-c2cc(C3CCN(c4ccc(C(C)=O)cc4[N+](=O)[O-])CC3)[nH]n2)cc1`: 8.83 µM; for `O=C1c2ccccc2C2=Nc3ccccc3SC(c3ccc(Cl)cc3)C12` (configuration not stated): 10.6 µM.
The same measure for `Cc1ccc(-c2cc(C(=O)N3N=C(C(F)F)CC3(O)C(F)F)c3ccccc3n2)cc1C` (configuration not stated): 4.55 µM.
Consider `CCN1CCN(Cc2ccc(NC(=O)c3cc(NC(=O)c4cncc(-c5cccs5)c4)cc(OC)c3)cc2C(F)(F)F)CC1`, for which the concentration at half-maximal activity (AC50) was 3.52 µM.
As for `CC(C)(C)N(Cc1ccccc1)C(=O)c1cc2ccccc2o1`, the AC50 was 0.653 µM.
The same measure for `C=C(C)C1Cc2c(C)nn(-c3cccc4ccccc34)c2C1` (configuration not stated): 7.55 µM; for `Cc1ccc(N/N=C/c2cccnc2)cc1`: 6.14 µM.
Next, `O=C(CCOc1ccccc1)N1CCN(c2ccc(O)cc2)CC1`: 3.25 µM.
Next, `O=C(NC(CSCc1ccccc1)C(=O)N/N=C/c1ccc(O)cc1O)c1ccc([N+](=O)[O-])cc1` (configuration not stated): 2.14 µM; `Cc1ccc(NC(=O)/C=C/c2ccc([N+](=O)[O-])s2)c(C)c1`: 2.3 µM.
`O=C(Nc1cc(S(=O)(=O)Nc2ccc(Cl)cc2)ccc1N1CCCCC1)c1ccc(F)cc1Cl`: the AC50 is 5.37 µM.
With `Cc1cccc(NC(=S)N/N=C/c2ccc([N+](=O)[O-])s2)c1`, the half-maximal activity concentration (AC50) is 6.78 µM.
The same measure for `Cc1ccc(OCCSc2nc(NC(C)C)nc(NC(C)C)n2)cc1`: 1.46 µM.
Next, `COc1ccc(-c2sc3cc(OC)c(OC)cc3c2-c2ccc(O)cc2)cc1`: 3.7 µM; `Cc1ccc(Cl)cc1N1CCN(CC(=O)NC2CCCc3ccccc32)CC1` (configuration not stated): 6.66 µM; `O=C(c1ccco1)c1nnn(Cc2ccccc2)c1-c1ccccc1`: 6.47 µM.
The same measure for `CC(C)(C)c1cc(C(=O)NNc2cc(C(F)(F)F)ccc2Cl)n(Cc2ccccc2)n1`: 4.18 µM; for `COc1ccc(-c2cn[nH]c2-c2ccc(OCc3ccccc3)cc2O)cc1`: 7.02 µM.
As to `CN(CC(=O)Nc1ccccc1Cl)C(=O)c1cccc(-n2cccc2)c1`, the AC50 was > 19.5 µM (inactive).
Take `Cc1ccc(S(=O)(=O)c2c(C)nn(C(C)(C)C)c2OC(=O)c2ccc(Br)o2)cc1`: the AC50 is 2.64 µM.
Take `COc1ccc2nc(NC(=O)c3ccc([N+](=O)[O-])o3)sc2c1`: the AC50 is 3.77 µM.
The same measure for `c1ccc(CNc2c(-c3cccc(SC4CCCCC4)c3)nc3ccccn23)cc1`: 3.6 µM.
Next, `CCCn1nc([N+](=O)[O-])c(C(C#N)c2nc3ccccc3o2)c(Cl)c1=O` (configuration not stated): 5.81 µM.
As to `Cc1ccc(NNC(=O)c2cccs2)cc1Cl`, the AC50 was 2.19 µM.
As for `Cc1c(C)n(CCc2ccccc2)c2ncnc(NCCCN(C)C)c12`, the AC50 is 5.52 µM.
For the compound `COCCNC(=O)c1c[nH]c2ccc(S(=O)(=O)N3CCc4ccccc43)cc2c1=O`, the half-maximal activity concentration (AC50) is 5.53 µM.
Next, `O=c1cc(CNc2cc(C(F)(F)F)cc(C(F)(F)F)c2)nc2sccn12`: 3.39 µM.
The same measure for `O=C(NCc1ccco1)c1ccc2c(c1)N(Cc1ccccc1)CCS2`: > 19.5 µM (inactive); for `COc1cc(OC)cc(-c2sc3ccc(OC)cc3c2-c2ccc3cc[nH]c3c2)c1`: 3.34 µM; for `COC(=O)C1=C(c2cccc(C#N)c2)C[C@@H]2CC[C@H]1N2C(=O)NC1Cc2ccccc2C1`: > 19.5 µM (inactive).
Next, `Cc1ccccc1CNc1ccc(C(CC(N)=O)NC(=O)c2ccccc2)cc1[N+](=O)[O-]` (configuration not stated): 6.24 µM.
Consider `COc1ccc(OC)c(/C=C2\S/C(=N/NC(=O)c3ccc4ccccc4c3)NC2=O)c1`, for which the AC50 is 9.71 µM.
As to `C=CCn1c(SCc2c(C)noc2C)nc2ccccc2c1=O`, the AC50 was 1.78 µM.
The same measure for `COc1ccc(-n2cc(-c3ccccc3)c3c(N4CCOCC4)ncnc32)cc1`: 6.91 µM.
